According to patent publication US6767715B2, “Nitroso compounds and their use as spin traps” (Randox Laboratories Ltd., priority 2000, dated 2004):
Entries after “also recorded” stand apart in the source; their conditions may differ.

Tests used:
[1] = Spin trapping of SO3− (horseradish peroxidase/H2O2/sulphite), ESR detection; settings: for optimal concentration of spin trap: 25 min incubation at room temperature; for signal/marker ratio: at optimal concentration (DBNBS 17.72 mM, DCNBS 20-25 mM)
Method: (§1) ESR spectra were obtained using a prototype spectrometer (Jeol (U.K) Ltd., Welwyn Garden City, England) equipped with a TE011 cylindrical cavity. Samples were analysed at room temperature in a WG-LC-11 quartz flat cell (Wilmad-Glass, Buena, N.J.). In general the instrument parameters were: microwave frequency 9.2 GHz, microwave power 4 mW, centre field (CF) 336.7 mT, sweep width (SW) ±5 mT, number of data points 4095, modulation frequency 100 kHz. For the spin traps reacted with horseradish peroxidase/H2O2/sulphite: sweep time 200 s, time constraint 0.1 s, modulation width 0.05. For the spin traps reacted with the oxidant and NO; sweep time 150 s, time constraint 0.3 s, modulation width 0.2 mT. A JEOL ES-DM1 digital manganese oxide marker (0.03 mm of the glass tube inserted per unit on the dial setting) with a dial setting of 500 was used to ensure the reproducibility between samples and to identify the position of the signals in the microwave field.
Solutions of the spin traps DBNBS, DCNBS and DMNBS (40 mM) (25, 50, […], 110.75, 125 and 156.25 μl for final concentrations of 4, 8, 14.68, 17.72, 20 and 25 mM in PBS) were added to 8 μl horseradish peroxidase (91 μM in PBS), 8 μl K2SO3 (100 mM in water) and 12.5 μl H2O2 (5 mM in PBS). The difference in the volume comprised PBS (pH 7.4). The final volume of the reaction mixture was 250 μl. The reaction mixture was mixed thoroughly and analysed by ESR spectroscopy after 25 min incubation at room temperature. Controls were run using individual reactants as well as the reaction mixture above in the absence of the spin traps.

[2] = Reaction of spin traps with nitric oxide, ESR detection; settings: for spin trap concentration giving maximum signal intensity / plateau / time at which reaction with NO reaches a maximum: NO 1 mM; for spin trap concentration giving maximum signal intensity / plateau: DBNBS incubated 26 hr, DCNBS 22 hr; for time at which reaction with NO reaches a maximum / limit of detection for NO (S/N ratio equals 3) / limit of quantitation for NO (S/N ratio equals 10): spin trap 0.15M; for time at which reaction with NO reaches a maximum: Tris-HCl pH 7.4; for limit of detection for NO (S/N ratio equals 3) / limit of quantitation for NO (S/N ratio equals 10): DBNBS 50 hr, DCNBS 20 hr, linear part of curve 0 to 10 μM
Method: as §1
The apparatus shown in FIG. 1 was flushed with nitrogen for 15 min. The vacutainer containing deionised water (4 ml) was then connected to the system and flushed with nitrogen for a further 15 min, to remove any oxygen present in the system, and therefore to prevent the formation of nitrogen dioxide. The NO gas was bubbled through the deionised water via the system for 45 min. The small amount of nitrogen dioxide present in the pressurised NO container was removed by bubbling through two bottles of 5M NaOH. The gas was then bubbled through a scrubbing bottle containing deionised water to remove any alkaline aerosol contamination. Any excess of NO after the deionised water step was bubbled through a scrubbing bottle containing 1M potassium permanganate/1M NaOH to prevent excess NO escaping from the fume hood. The concentration of NO in the resulting NO-saturated water was taken to be 2.0 mM.
Samples of DBNBS, DCNBS and DMNBS were weighed into vacutainers and evacuated. Tris-HCl buffer, 0.01M, pH 7.4, was deoxygenated by bubbling with nitrogen gas for 15 min. The deoxygenated buffer was added to the spin traps by a gas tight syringe to give a final spin trap concentration of 0.30M. The spin trap solution was briefly flushed with nitrogen and was then ready for use.
NO-saturated water (1 ml) was added to 1 ml of each of the spin trap solutions (DBNBS, DCNBS and DMNBS). The final concentrations of the spin traps were 0.15M and NO 1 mM. Parallel blanks were carried out by adding 1 ml of deoxygenated water to the spin trap solutions. At each time point samples were taken from test solutions and blanks for ESR spectroscopic analysis and the blank was substracted from the spectra.
The spin trap solutions were prepared as above to give final concentrations of 0.05, 0.1, 0.15, 0.2 and 0.25M in the reaction mixtures and the parallel blanks. The saturated NO solution (0.5 ml, final concentration 1 mM) was added to the test solutions and the deoxygenated water (0.5 ml) was added to the blanks. The reaction mixtures with DBNBS were incubated for 26 hr. while those with DCNBS were incubated for 22 hr. before analysis by ESR spectroscopy. The blanks were subtracted from their parallel test spectra respectively.
The concentration of NO in NO saturated water is taken to be 2.0 mM. This NO solution was diluted with deoxygenated water to give final concentrations in the reaction mixture of 0, 0.25, 0.5, 1, 2.5, 5, 10, 50 and 100 μM. The NO solution was added to DBNBS and to DCNBS to give a final spin trap concentration of 0.15M. The blank (or zero point) was ran by adding 0.5 ml of deoxygenated deionised water to the spin trap solutions. The reaction mixture containing DBNBS was incubated for 50 hr, and that containing DCNBS was incubated for 20 hr. The signal to noise ratio was calculated from each spectrum. All withdrawals and additions of solutions were carried out using a gas-tight syringe.

[3] = Reaction of spin traps with oxidant in CAPD dialysate, ESR detection; settings: oxidant system; for final nominal concentration at which spin trap reached an excess: 60 μl dialysate, 25 min at room temperature; for signal/marker ratio: DBNBS at 1.2 mM, DCNBS at 2.5 mM
Method: as §1
Dialysate from a patient with renal failure on Continuous Ambulatory Peritoneal Dialysis (CAPD) was used for this study. The dialysate was collected when the dialysate bag was changed.
Solutions of 10 mM DBNBS and DCNBS (5, 8, 12, 25 and 30 μl for final concentrations of 0.5, 0.8, 1.2, 2.5 and 3.0 mM) were added to 60 μl of the dialysate. The difference in volume comprised PBS. The reaction mixture was mixed thoroughly and analysed by ESR spectroscopy after 25 min incubation at room temperature.

[4] = Solubility of the spin trap in aqueous systems; type: physicochemical; settings: Sodium Salt

| Structure (SMILES) | optimal concentration of spin trap ([1]; SO3− system) [mM] | signal/marker ratio ([1]; SO3− system) | spin trap concentration giving maximum signal intensity / plateau [2] [M] | time at which reaction with NO reaches a maximum [2] | limit of detection for NO (S/N ratio equals 3) [2] [µM] | limit of quantitation for NO (S/N ratio equals 10) [2] [µM] | final nominal concentration at which spin trap reached an excess [3] | signal/marker ratio [3] | sensitivity relative to DBNBS ([1]; SO3− system, at optimal concentrations) [times] | solubility compared with DBNBS [4] | ESR signal height for SO3− adduct relative to DBNBS-d2-15N ([1]; SO3− generated from HRP, H2O2, SO3 2−) |
| --- | --- | --- | --- | --- | --- | --- | --- | --- | --- | --- | --- |
| O=Nc1c(Br)cc(S(=O)(=O)[O-])cc1Br.[Na+] [DBNBS, 3,5-dibromo-4-nitrosobenzenesulphonate, sodium salt, reference compound] | 17.72 | 3.33 | 0.15 | approximately 50 hr | 0.23 | 0.92 | ca. 1.2 mM | 0.516 | – | – | – |
| O=Nc1c(Cl)cc(S(=O)(=O)[O-])cc1Cl.[Na+] [DCNBS, 3,5-Dichloro-4-nitrosobenzenesulphonate, Sodium Salt] | 20 to 25 | 10.62 | 0.05 to 0.40 | 20 to 24 h | 4.06 | 17.30 | 2.5 mM | 0.521 | 3 | improved solubility; also recorded: more soluble than DBNBS | – |
| Cc1cc(S(=O)(=O)[O-])cc(C)c1N=O.[Na+] [DMNBS, 3,5-Dimethyl-4-nitrosobenzenesulphonate, Sodium Salt] | – | – | – | 24 to 28 h | – | – | – | – | – | – | more than three times |
